“Also recorded” adds a separate entry of the source.
Legend:
α5β1 integrin [1] = target: T1, α5β1 integrin (Mus musculus, UniProt P09055+P11688); experiment: BCAS mouse model, α5 staining in cortex; type: in vivo; conditions: 14 days, 1 mg/kg i.p. after surgery and every other day to day 12, n=4, preliminary data
T1 construct: Mice (WT, α5KO, DB) are subjected to either sham or BCAS (0.18 mm ID coils) surgery; from tissue; host or cells: living mouse; brain (cortex)
Description: Representative images within the cortex of α5 staining in BCAS animals treated with ATN-161 (1 mg/kg; i.p.). ATN-161 n=4
Quantification of α5-positive pixel density. ***p≤0.001 compared to sham group.
(§1) Mice (WT, α5KO, DB) are subjected to either sham or BCAS (0.18 mm ID coils) surgery. Euthanasia and brain tissue extraction, and processing for immunohistochemistry or western blot analysis (see below) will occur at early (14 days) or late (30 and 60 days) time points following BCAS. This will allow correlation of α5β1 integrin expression levels with the progression of brain injury over time, whether it could potentially contribute to this pathology early and/or late, and determine whether this is influenced by the diabetic phenotype prior to overt cerebrovascular pathology.

IgG = IgG immunohistochemistry (BBB permeability, IgG extravasation) in stroked brain; type: in vivo, mouse; conditions: PSD3; 1 mg/kg IP x3; mean±SD, n=8; Vehicle 70125±53485
Description: (§2) On PSD3, animals were systemically perfused with PBS (Phosphate Buffered Solution, 1×) for 5 minutes. Brains were removed, flash frozen in liquid nitrogen, and stored at −20 C until use. The brains were coronally sectioned by cryostat at 20 μm and mounted (four per slide, 2 mm separating each section) for staining. Negative controls (no primary antibody) were run in tandem with each target to determine thresholding values.
Sections were fixed in 10% phosphate-buffered formalin. After washing, IgG 568 biotinylated antibody (1:500, Thermo-Fisher Scientific) in 1% bovine serum albumin was applied to the tissue for 2 hours. Slides were then cover slipped (Vector Labs) for imaging on a Nikon Eclipse Ti and software (Nikon, Melville, N.Y., USA). Image J was used to isolate and count IgG positive pixels. Three separate 20× images per core region were taken per section and averaged.

[2] = Phase I and II clinical oncology studies, 1 mg/kg 10-minute infusions: dry mouth, cellulitis, paresthesia in one out of four patients; cited from earlier work
integrin α5β1 [3] = target: T2, integrin α5β1 (Mus musculus, UniProt P09055+P11688); experiment: MRI (ADC and T2-weighted) infarct and edema volume after experimental ischemic stroke; type: in vivo
T2 construct: Animals received an IP injection of either Vehicle (sterile PBS) or ATN-161; from tissue; host or cells: living mouse; brain / cerebrovasculature
Description: (§3) Mice underwent transient tandem ipsilateral common carotid artery/middle cerebral artery (CCA/MCA) occlusion for 60 minutes as previously published, followed by reperfusion for 1-3 days. Briefly, a small burr hole is created directly over the M2 branch of the MCA, and a 0.0005 inch metal filament is placed under the artery on both sides of the burr hole. The CCA was then isolated and occluded using an aneurysm clip. Blood flow was determined with the Laser Doppler Perfusion Monitor (Perimed, Ardmore, Pa., USA). Animals that received less than 80% occlusion rate from baseline (i.e. pre-occlusion) were excluded from analysis. Sham animals underwent the listed procedure without vascular occlusion. All mice were allowed to recover to post-stroke day (PSD)3, during which daily body weights were measured.
Animals received an IP injection of either Vehicle (sterile PBS) or ATN-161 (lmg/kg, Medkoo Biosciences, Morrisville, N.C., USA) immediately after reperfusion, PSD1 and on PSD2. […] Accounting for edema volume, infarct size based on TTC images was analyzed with Image J (NH) software as:
PSD3 animals were anesthetized with isoflurane and placed on a heated bed where body temperature and breathing rate were carefully monitored throughout the scan. […] All images were analyzed with ITK-SNAP (www.itksnap.org) by a blinded, independent neuroradiologist. […]

MMP-9 [4] = experiment: qPCR of ipsilateral cortex at PSD3, MMP-9; type: in vivo, mouse; conditions: relative to sham; mean±SD, n=7; Sham 1.018±0.1759, Vehicle 6.761±5.321
Description: (§4) On PSD3, brains were removed and sectioned at 2 mm where the ipsilateral cortical tissue and corresponding contralateral cortical tissue were isolated. All sections per animal were combined and homogenized in Trizol (Life Technologies). RNA extraction was performed according to the RNA extraction kit provided by the manufacturer (Life Technologies). RNA was converted to cDNA using a high capacity cDNA reverse transcriptase kit (Applied Bioscience, Grand Island, N.Y., USA). 18S (control; Mm03928990_g1), collagen IV (Mm00483669_m1), IL-1β (Mm00434228_m1), CXCL12 (Mm00445553_m1), and MMP9 (Mm00442991_m1) Taqman genes were analyzed using Real-time PCR (ViiA7, Life Technologies). Data was analyzed as fold change comparing vehicle and ATN-161 treated mice as a % control (sham).

MMP-9 [5] = experiment: Immunohistochemical staining of MMP-9 in stroked brain; type: in vivo, mouse; conditions: mean±SD, n=7
Description: as §2
(§5) Sections were fixed in methanol:acetone (1:1), followed by blocking buffer (5% bovine serum albumin (Fisher Scientific) in PBS with 0.1% Triton-X). Sections were incubated in primary antibody overnight at 4 C (anti-rabbit PECAM at 1:100, Fisher Scientific; anti-rat CD49e at 1:250, BD Pharminagen; anti-rat CD45 at 1:200, ThermoFisher Scientific, anti-rabbit Claudin-5 at 1:200, Abcam, anti-rabbit MMP-9 at 1:100, Abcam, and anti-rabbit fibronectin at 1:100, Abcam). Sections were washed and placed in fluorophore-conjugated secondary antibody, followed by NucBlue cell nucleus counterstain (Fisher Scientific) at room temperature (Vector Labs, 1:250), then cover slipped (Vector Labs) and imaged on a Nikon Eclipse Ti and software (Nikon, Melville, N.Y., USA). Image J was used to quantify all Immunofluorescence positive pixels. CD45: One 4× image per all four sections were taken and averaged. […]

IL-1β = experiment: qPCR of ipsilateral cortex at PSD3, IL-1β; type: in vivo, mouse; conditions: relative to sham; mean±SD, n=7; Sham 1.023±0.1666, Vehicle 27.04±19.96
Description: as §4

GFAP = experiment: BCAS mouse model, GFAP (astrocyte marker) staining in striatum; type: in vivo; conditions: 14 days, striatum/white matter, 1 mg/kg i.p. after surgery and days 2, 4, 6, 8, 10, 12, n=4
Description: Representative images within the striatum of GFAP (astrocyte marker) staining in BCAS animals treated with ATN-161 (1 mg/kg; i.p.); treatment immediately after surgery and on post-stenosis days 2, 4, 6, 8, 10, 12. ATN-161: n=4
Quantification of GFAP-positive pixel density. **p≤0.01 compared to sham group.
as §1

CXCL12 = experiment: qPCR of ipsilateral cortex at PSD3, CXCL12; type: in vivo, mouse; conditions: relative to sham; mean±SD, n=8; Sham 1.015±0.1964, Vehicle 0.5271±0.1779
Description: as §4

Claudin-5 = experiment: Immunofluorescence of Claudin-5 in stroked brain; type: in vivo, mouse; conditions: mean±SD, n=6; Vehicle 19830±5538
Description: as §2, §5

[6] = Physiological measurements (MouseOx) and body weight after reperfusion in stroked mice; type: in vivo, mouse
Description: as §3
Immediately following reperfusion, heart, rate, pulse distension, and body temperature were recorded using MouseOx (Starr Life Science, Holliston, Mass., USA). After 5 minutes, sterile PBS (Vehicle) or ATN-161 was injected via IP (as described below); mice were continually observed for 15 minutes post reperfusion.

integrin α5β1 [7] = target: T2, integrin α5β1; experiment: 11-point behavioral Neuroscore after experimental ischemic stroke; type: in vivo; conditions: vs Vehicle
Description: as §3
Animals received an IP injection of either Vehicle (sterile PBS) or ATN-161 (lmg/kg, Medkoo Biosciences, Morrisville, N.C., USA) immediately after reperfusion, PSD1 and on PSD2. Ischemic stroke was confirmed on 2 mm sections stained with […] (TTC; BD, Sparks, M D, USA) or Magnetic Resonance Imaging on PSD3. Accounting for edema volume, infarct size based on TTC images was analyzed with Image J (NH) software as: […]

[8] = test system: angiogenesis and tumor growth; conditions: Donate et al.; cited from earlier work
collagen IV = experiment: qPCR of ipsilateral cortex at PSD3, collagen IV; type: in vivo, mouse; conditions: relative to sham; mean±SD, n=8; Sham 1.018±0.1573, Vehicle 0.3543±0.1013
Description: as §4

α5β1 integrin [9] = target: T1, α5β1 integrin; experiment: BCAS mouse model, y-maze % spontaneous alternation; type: in vivo; conditions: post-stenosis day 14, 1 mg/kg i.p. after surgery and days 2, 4, 6, 8, 10, 12, n=4
Description: On post-stenosis day 14, mice underwent y-maze testing and % spontaneous alternation (working memory) was quantified. BCAS animals were treated with vehicle or ATN-161 (1 mg/kg; i.p.) treatment immediately after surgery and on post-stenosis days 2, 4, 6, 8, 10, 12. […] Sham: n=4; BCAS: n=8; ATN-161: n=4
as §1

integrin α5β1 [10] = target: T2, integrin α5β1; experiment: Immunohistochemistry of integrin α5β1 (CD49e) in stroked brain; type: in vivo; conditions: 1 mg/kg IP x3; mean±SD, n=7; Vehicle 308484±53485; p=0.0835
Description: as §2, §5

α5β1 integrin [11] = conditions: single IP dose 24 hours after MCAO; Wu et al.; cited from earlier work
[12] = IP ATN-161 5 min after reperfusion, vs Vehicle

T2 sequence (P11688 45-898 limits assumed): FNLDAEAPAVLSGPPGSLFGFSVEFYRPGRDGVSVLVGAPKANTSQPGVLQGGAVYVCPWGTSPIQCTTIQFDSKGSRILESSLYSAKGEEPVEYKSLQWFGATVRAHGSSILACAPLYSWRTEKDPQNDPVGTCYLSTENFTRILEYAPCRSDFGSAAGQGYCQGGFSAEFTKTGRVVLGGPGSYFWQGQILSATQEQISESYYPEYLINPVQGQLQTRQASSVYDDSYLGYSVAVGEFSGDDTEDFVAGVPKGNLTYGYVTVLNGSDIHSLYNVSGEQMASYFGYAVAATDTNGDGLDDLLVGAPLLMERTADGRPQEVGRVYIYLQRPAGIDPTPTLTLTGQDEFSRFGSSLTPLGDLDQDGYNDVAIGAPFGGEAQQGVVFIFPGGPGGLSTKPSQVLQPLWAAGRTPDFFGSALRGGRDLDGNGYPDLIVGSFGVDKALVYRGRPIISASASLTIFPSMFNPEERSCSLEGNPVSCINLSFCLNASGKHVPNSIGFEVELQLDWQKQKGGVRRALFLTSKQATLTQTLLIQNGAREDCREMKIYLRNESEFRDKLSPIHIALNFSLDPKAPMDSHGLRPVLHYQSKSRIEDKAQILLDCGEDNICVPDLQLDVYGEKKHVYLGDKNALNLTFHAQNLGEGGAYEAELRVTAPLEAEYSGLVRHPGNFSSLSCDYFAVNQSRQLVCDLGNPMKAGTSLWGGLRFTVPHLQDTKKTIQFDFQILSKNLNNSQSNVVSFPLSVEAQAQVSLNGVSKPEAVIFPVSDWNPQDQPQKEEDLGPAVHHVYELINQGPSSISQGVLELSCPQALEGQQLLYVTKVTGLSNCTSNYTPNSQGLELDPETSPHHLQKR
T2 sequence (P11688 899-1053 limits assumed): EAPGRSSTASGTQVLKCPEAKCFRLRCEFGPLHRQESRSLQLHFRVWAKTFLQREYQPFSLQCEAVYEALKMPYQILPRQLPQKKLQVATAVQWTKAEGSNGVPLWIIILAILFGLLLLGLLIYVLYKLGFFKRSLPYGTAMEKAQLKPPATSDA
T2 sequence (P09055 21-798): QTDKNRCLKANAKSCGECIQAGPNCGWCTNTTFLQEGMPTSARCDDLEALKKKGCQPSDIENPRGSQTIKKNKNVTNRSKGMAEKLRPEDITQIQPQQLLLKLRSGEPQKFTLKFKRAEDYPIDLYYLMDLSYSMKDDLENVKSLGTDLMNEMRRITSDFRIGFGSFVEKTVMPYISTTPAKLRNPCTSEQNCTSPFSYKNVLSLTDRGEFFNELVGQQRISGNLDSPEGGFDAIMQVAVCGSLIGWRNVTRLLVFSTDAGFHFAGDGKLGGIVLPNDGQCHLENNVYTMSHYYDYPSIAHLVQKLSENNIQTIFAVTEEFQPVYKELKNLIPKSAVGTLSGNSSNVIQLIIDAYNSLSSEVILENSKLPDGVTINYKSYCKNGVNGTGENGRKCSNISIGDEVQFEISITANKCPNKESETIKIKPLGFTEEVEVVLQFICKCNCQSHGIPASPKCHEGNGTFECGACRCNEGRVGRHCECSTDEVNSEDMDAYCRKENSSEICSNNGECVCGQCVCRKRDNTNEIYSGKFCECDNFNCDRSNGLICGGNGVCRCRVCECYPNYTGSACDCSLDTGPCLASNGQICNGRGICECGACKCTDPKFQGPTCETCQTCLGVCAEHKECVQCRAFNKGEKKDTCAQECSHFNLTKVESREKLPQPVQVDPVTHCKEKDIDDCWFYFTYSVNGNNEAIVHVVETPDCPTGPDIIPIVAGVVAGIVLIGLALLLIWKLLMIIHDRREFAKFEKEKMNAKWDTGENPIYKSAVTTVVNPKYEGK
T1 sequence (P11688 45-898 limits assumed): as the sequence (P11688 45-898 limits assumed) above
T1 sequence (P11688 899-1053 limits assumed): as the sequence (P11688 899-1053 limits assumed) above
T1 sequence (P09055 21-798): as the sequence (P09055 21-798) above

Ac-PHSCN-NH2 [ATN-161]
α5 expression (α5-positive pixel density) in cortex following BCAS (α5β1 integrin [1]): decreases α5β1 integrin expression compared to controls; also recorded: decreases α5 expression compared to controls | IgG positive pixel analysis in the core (IgG): 16753±23348 positive pixels | safety and tolerability in clinical trials [2]: safe and well-tolerated; also recorded: limited side effects | Infarct volume analysis of T2 weighted MRI scan following MCAo (integrin α5β1 [3]; 1 mg/kg, PSD 3, n=8 vs Vehicle n=7, p≤0.05): reduces infarct volume; also recorded: decreased infarct volumes | ADC analysis for infarct volume (integrin α5β1 [3]; PSD3, 1 mg/kg IP after reperfusion, PSD1, PSD2, absent edema volume, mean±SD, n=8, Vehicle 17.9±4.677): 12.24±3.758 | qPCR MMP-9, ipsilateral cortex at PSD3 (MMP-9 [4]): 2.757±2.401 fold change | MMP-9 positive pixels at PSD3 in the peri-infarct (MMP-9 [5]; Vehicle 189516±170441, p=0.0450): 42227±180171 positive pixels | MMP-9 positive pixels at PSD3 in the core (MMP-9 [5]; Vehicle 443691±220951, p=0.0734): 232262±68098 positive pixels | qPCR IL-1β, ipsilateral cortex at PSD3 (IL-1β): 11.89±9.235 fold change | inflammation (GFAP-positive pixel density, astrocyte activation) following BCAS (GFAP): decreases inflammation compared to controls | qPCR CXCL12, ipsilateral cortex at PSD3 (CXCL12): 0.8488±0.2846 fold change | Claudin-5 positive pixels in the core at PSD3 (Claudin-5): 44220±19878 positive pixels | percent change of body temperature following reperfusion [6, 12]: did not show any differences | percent change of heart rate (bpm) following reperfusion [6, 12]: did not show any differences | percent change of pulse distension following reperfusion [6, 12]: did not show any differences | percent change of body weight following ischemic stroke ([6]; IP ATN-161, vs Vehicle): did not show any differences | 11-point Neuroscore on PSD1 (integrin α5β1 [7]): no difference | doses producing the most significant reduction in activity (angiogenesis and tumor growth) [8]: 1 to 5 mg/kg | qPCR collagen IV, ipsilateral cortex at PSD3 (collagen IV): 0.8563±0.6898 fold change | cognitive outcome, y-maze % spontaneous alternation (working memory) (α5β1 integrin [9]): improves cognitive outcome; also recorded: A positive trend is observed | Integrin α5β1 analysis at PSD3 in peri-infarct (integrin α5β1 [10]): 162166±23348 positive pixels

PHSRN
effect after rat transient MCAO (α5β1 integrin [11]): neuroprotective, proangiogenic and increased neurogenesis

From patent publication US20200179479A1, “INHIBITION OF ALPHA5BETA1 INTEGRIN WITH ATN-161 AS A NOVEL THERAPY FOR VASCULAR DEMENTIA” (University of Kentucky Research Foundation, priority 2018, published 2020)
